Assay results reported in US10442796B2, “2,3,5-substituted thiophene compound as protein kinase inhibitor” (KOREA INSTITUTE OF SCIENCE AND TECHNOLOGY, priority 2016, dated 2019).

Columns and labels:
Test in all cases: Kinase inhibitory activity, full kinase panel
Type in all cases: biochemical
Details in all cases: single concentration of 1 μM, read-out: %Inhibitory ability
[1] = target: SRC (Homo sapiens, UniProt P12931)
Method: (§1) In order to measure inhibitory activity (% inhibitory ability) against a protein kinase with respect to the compound of the present invention, a biochemical assay was performed in a full kinase panel shown in the following Table 1. As an experimental compound, the (S)-5-((3-fluorophenyl)ethynyl)-N-(piperidin-3-yl)-3-ureidothiophene-2-carboxamide synthesized in Example 24 was used.

[2] = target: MAP4K4 (Homo sapiens, UniProt O95819)
Method: as §1

[3] = target: PRKX (Homo sapiens, UniProt P51817)
Sequence of PRKX (P51817 whole entry): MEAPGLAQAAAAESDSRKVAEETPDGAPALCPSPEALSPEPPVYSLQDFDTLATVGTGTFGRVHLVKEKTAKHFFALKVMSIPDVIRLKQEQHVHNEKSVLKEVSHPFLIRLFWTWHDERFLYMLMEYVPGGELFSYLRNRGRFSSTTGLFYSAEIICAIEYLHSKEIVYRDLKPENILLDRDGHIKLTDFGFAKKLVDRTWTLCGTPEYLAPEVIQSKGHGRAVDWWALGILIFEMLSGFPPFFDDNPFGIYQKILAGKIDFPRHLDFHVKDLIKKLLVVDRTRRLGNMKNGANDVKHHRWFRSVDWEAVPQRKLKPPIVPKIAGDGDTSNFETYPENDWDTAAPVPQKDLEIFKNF
Method: as §1

[4] = target: MAP4K5 (Homo sapiens, UniProt Q9Y4K4)
Method: as §1

[5] = target: MKNK2 (Homo sapiens, UniProt Q9HBH9)
Method: as §1

[6] = target: RIOK3 (Homo sapiens, UniProt O14730)
Method: as §1

[7] = target: AAK1 (Homo sapiens, UniProt Q2M2I8)
Method: as §1

[8] = target: MEK1 (Homo sapiens, UniProt Q02750)
Method: as §1

[9] = target: DAPK1 (Homo sapiens, UniProt P53355)
Method: as §1

[10] = target: MERTK (Homo sapiens, UniProt Q12866)
Method: as §1

[11] = target: MLK1 (Homo sapiens, UniProt P80192)
Method: as §1

[12] = target: MEK3 (Homo sapiens, UniProt P46734)
Sequence of MEK3 (P46734 whole entry, species assumed): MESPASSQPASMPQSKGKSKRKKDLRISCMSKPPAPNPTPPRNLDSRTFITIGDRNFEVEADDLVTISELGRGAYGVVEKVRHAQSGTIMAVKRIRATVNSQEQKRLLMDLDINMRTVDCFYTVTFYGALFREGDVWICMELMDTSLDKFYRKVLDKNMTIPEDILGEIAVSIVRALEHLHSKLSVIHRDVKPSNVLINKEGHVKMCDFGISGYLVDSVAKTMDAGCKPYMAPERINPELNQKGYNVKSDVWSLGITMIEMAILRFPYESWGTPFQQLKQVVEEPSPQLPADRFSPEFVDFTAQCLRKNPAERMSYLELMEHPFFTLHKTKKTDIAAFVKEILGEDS
Method: as §1

[13] = target: PHKG1 (Homo sapiens, UniProt Q16816)
Method: as §1

[14] = target: PLK4 (Homo sapiens, UniProt O00444)
Method: as §1

[15] = target: MARK2 (Homo sapiens, UniProt Q7KZI7)
Method: as §1

[16] = target: OSR1 (Homo sapiens, UniProt O95747)
Method: as §1

[17] = target: JAK3 (Homo sapiens, UniProt P52333)
Sequence of JAK3 (P52333 whole entry, species assumed): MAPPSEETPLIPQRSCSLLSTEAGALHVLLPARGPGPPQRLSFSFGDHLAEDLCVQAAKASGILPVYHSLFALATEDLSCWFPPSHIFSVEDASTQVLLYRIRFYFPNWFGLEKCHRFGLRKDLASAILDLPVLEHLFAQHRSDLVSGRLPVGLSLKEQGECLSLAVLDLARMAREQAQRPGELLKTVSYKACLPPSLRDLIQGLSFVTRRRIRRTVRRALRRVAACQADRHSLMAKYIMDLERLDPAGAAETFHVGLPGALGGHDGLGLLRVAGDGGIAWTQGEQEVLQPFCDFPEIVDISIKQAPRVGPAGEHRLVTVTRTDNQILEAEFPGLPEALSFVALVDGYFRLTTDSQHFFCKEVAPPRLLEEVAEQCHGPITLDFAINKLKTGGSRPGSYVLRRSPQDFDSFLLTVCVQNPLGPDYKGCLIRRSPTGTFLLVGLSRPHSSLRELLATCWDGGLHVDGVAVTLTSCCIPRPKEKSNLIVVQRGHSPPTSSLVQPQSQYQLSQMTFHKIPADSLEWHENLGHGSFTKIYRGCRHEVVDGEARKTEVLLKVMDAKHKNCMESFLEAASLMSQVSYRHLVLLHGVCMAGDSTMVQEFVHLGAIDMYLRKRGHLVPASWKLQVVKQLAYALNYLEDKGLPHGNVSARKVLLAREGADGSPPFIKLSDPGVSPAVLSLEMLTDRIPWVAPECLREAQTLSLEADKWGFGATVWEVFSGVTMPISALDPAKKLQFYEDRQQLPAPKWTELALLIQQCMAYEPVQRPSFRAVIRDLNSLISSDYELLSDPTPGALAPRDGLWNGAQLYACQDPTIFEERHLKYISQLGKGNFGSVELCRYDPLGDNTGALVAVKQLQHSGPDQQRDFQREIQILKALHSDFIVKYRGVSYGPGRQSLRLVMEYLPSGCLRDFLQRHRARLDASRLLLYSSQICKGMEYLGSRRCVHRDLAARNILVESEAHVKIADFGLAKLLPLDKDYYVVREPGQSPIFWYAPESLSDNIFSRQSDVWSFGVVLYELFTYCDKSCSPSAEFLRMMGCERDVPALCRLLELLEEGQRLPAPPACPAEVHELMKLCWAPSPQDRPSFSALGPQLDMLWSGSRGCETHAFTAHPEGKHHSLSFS
Method: as §1

[18] = target: CHEK1 (Homo sapiens, UniProt O14757)
Method: as §1

[19] = target: HCK (Homo sapiens, UniProt P08631)
Method: as §1

[20] = target: MST4 (Homo sapiens, UniProt Q9P289)
Method: as §1

[21] = target: ANKK1 (Homo sapiens, UniProt Q8NFD2)
Sequence of ANKK1 (Q8NFD2 whole entry, species assumed): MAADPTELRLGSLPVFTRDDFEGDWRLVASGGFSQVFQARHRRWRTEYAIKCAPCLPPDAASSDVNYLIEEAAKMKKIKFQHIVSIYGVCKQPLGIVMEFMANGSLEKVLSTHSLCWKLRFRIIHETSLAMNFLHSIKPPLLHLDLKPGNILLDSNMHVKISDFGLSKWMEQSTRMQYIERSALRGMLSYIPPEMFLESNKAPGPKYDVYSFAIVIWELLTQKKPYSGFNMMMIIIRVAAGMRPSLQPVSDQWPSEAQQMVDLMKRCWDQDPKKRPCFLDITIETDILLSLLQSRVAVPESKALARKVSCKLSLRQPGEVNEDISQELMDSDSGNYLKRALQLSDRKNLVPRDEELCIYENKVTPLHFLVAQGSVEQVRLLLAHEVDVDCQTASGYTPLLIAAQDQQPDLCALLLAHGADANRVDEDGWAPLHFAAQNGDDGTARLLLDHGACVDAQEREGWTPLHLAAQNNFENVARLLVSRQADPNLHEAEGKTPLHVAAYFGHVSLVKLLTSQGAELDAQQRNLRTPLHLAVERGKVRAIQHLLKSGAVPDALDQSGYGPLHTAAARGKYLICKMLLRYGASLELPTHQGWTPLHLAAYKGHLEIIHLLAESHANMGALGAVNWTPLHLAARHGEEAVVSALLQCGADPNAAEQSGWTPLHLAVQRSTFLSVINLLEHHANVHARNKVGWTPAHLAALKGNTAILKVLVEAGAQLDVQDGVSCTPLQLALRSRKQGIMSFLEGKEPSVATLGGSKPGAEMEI
Method: as §1

[22] = target: TSSK3 (Homo sapiens, UniProt Q96PN8)
Method: as §1

[23] = target: RIPK4 (Homo sapiens, UniProt P57078)
Method: as §1

[24] = target: IRAK1 (Homo sapiens, UniProt P51617)
Method: as §1

[25] = target: HPK1 (Homo sapiens, UniProt Q92918)
Method: as §1

[26] = target: SYK (Homo sapiens, UniProt P43405)
Method: as §1

[27] = target: PRKG2 (Homo sapiens, UniProt Q13237)
Method: as §1

[28] = target: YANK1 (Homo sapiens, UniProt Q8WU08)
Sequence of YANK1 (Q8WU08 whole entry, species assumed): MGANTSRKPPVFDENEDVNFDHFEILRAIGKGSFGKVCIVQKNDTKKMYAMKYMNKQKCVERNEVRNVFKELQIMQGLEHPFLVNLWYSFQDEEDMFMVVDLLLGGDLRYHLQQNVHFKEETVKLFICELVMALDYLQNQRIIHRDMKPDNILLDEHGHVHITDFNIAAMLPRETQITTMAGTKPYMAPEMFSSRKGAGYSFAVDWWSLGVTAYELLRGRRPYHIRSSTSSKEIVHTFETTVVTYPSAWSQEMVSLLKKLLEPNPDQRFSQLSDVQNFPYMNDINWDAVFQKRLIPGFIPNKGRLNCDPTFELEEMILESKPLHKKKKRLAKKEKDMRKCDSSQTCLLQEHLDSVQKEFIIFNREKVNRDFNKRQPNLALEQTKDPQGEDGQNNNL
Method: as §1

[29] = target: PAK4 (Homo sapiens, UniProt O96013)
Method: as §1

[30] = target: SBK1 (Homo sapiens, UniProt Q52WX2)
Method: as §1

[31] = target: BLK (Homo sapiens, UniProt P51451)
Method: as §1

[32] = target: CSF1R (Homo sapiens, UniProt P07333)
Method: as §1

[33] = target: MAP3K2 (Homo sapiens, UniProt Q9Y2U5)
Method: as §1

[34] = target: LOK (Homo sapiens, UniProt O94804)
Sequence of LOK (O94804 whole entry, species assumed): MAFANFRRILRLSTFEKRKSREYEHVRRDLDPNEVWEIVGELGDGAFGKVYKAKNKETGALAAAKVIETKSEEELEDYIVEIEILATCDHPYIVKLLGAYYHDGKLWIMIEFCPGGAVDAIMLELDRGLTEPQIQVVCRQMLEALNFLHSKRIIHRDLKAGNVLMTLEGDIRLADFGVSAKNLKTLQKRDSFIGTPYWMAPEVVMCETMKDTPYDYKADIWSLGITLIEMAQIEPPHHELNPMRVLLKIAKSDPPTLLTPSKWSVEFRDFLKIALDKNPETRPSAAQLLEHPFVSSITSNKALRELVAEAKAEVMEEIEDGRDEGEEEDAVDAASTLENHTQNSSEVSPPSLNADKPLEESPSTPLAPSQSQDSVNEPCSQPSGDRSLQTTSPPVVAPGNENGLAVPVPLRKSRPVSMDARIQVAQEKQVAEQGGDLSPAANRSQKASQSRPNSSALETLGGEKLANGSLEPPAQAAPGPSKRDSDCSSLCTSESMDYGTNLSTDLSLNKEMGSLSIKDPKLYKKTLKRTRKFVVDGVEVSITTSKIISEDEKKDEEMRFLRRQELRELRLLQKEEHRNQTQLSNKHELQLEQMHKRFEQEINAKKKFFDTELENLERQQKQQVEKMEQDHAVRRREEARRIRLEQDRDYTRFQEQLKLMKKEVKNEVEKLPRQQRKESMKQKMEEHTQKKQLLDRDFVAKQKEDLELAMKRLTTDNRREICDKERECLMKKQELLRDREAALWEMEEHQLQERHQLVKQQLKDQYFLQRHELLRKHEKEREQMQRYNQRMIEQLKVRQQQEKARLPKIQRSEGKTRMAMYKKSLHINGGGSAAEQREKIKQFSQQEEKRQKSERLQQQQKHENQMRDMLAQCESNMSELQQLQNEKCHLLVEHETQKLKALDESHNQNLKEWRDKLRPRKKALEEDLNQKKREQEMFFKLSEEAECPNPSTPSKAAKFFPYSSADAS
Method: as §1

[35] = target: ULK2 (Homo sapiens, UniProt Q8IYT8)
Method: as §1

[36] = target: MLK3 (Homo sapiens, UniProt Q16584)
Method: as §1

[37] = target: MST2 (Homo sapiens, UniProt Q13188)
Method: as §1

[38] = target: PDGFRA (Homo sapiens, UniProt P16234)
Method: as §1

[39] = target: KIT (Homo sapiens, UniProt P10721)
Method: as §1

[40] = target: FGR (Homo sapiens, UniProt P09769)
Sequence of FGR (P09769 whole entry, species assumed): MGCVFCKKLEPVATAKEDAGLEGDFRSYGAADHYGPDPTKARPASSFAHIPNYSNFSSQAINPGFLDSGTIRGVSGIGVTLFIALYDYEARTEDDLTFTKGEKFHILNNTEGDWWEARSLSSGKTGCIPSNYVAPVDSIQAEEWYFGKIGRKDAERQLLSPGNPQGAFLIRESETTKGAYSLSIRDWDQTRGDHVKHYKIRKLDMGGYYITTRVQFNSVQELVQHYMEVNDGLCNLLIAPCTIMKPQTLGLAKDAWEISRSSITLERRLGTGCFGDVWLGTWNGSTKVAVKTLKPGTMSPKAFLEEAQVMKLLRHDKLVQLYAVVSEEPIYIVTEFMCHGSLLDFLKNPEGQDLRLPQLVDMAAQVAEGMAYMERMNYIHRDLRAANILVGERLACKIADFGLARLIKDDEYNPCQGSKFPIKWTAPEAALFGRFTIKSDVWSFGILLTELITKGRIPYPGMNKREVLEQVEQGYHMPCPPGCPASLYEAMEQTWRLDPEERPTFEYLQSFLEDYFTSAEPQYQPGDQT
Method: as §1

[41] = target: TRKA (Homo sapiens, UniProt P04629)
Method: as §1

[42] = target: PHKG2 (Homo sapiens, UniProt P15735)
Method: as §1

Sequence of SRC (P12931 whole entry, species assumed): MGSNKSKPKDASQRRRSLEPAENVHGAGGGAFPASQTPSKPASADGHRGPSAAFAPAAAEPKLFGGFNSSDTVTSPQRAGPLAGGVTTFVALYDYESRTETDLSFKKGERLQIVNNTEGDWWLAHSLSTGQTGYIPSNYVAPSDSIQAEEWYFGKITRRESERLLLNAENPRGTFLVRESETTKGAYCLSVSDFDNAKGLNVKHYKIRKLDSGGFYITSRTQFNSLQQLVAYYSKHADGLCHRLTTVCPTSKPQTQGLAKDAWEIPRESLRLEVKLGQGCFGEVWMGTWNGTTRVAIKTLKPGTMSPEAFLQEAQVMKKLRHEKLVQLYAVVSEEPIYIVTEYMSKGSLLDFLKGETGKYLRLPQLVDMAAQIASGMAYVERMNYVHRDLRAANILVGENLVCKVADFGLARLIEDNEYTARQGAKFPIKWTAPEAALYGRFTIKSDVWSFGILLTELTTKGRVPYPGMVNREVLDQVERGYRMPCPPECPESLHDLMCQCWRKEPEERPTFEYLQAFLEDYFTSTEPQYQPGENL

- inhibition at 1 µM [1]: 98.1%
- inhibition at 1 µM [2]: 91.4%
- inhibition at 1 µM [3]: 73%
- inhibition at 1 µM [4]: 85%
- inhibition at 1 µM [5]: 92.7%
- inhibition at 1 µM [6]: 79%
- inhibition at 1 µM [7]: 80%
- inhibition at 1 µM [8]: 96.3%
- inhibition at 1 µM [9]: 94.4%
- inhibition at 1 µM [10]: 96.1%
- inhibition at 1 µM [11]: 95.9%
- inhibition at 1 µM [12]: 83%
- inhibition at 1 µM [13]: 98.4%
- inhibition at 1 µM [14]: 81%
- inhibition at 1 µM [15]: 79%
- inhibition at 1 µM [16]: 68%
- inhibition at 1 µM [17]: 91.1%
- inhibition at 1 µM [18]: 96.1%
- inhibition at 1 µM [19]: 94.9%
- inhibition at 1 µM [20]: 83%
- inhibition at 1 µM [21]: 93.3%
- inhibition at 1 µM [22]: 72%
- inhibition at 1 µM [23]: 97.6%
- inhibition at 1 µM [24]: 90.7%
- inhibition at 1 µM [25]: 78%
- inhibition at 1 µM [26]: 91.5%
- inhibition at 1 µM [27]: 96.6%
- inhibition at 1 µM [28]: 95.5%
- inhibition at 1 µM [29]: 92.2%
- inhibition at 1 µM [30]: 66%
- inhibition at 1 µM [31]: 93.2%
- inhibition at 1 µM [32]: 98.4%
- inhibition at 1 µM [33]: 97.7%
- inhibition at 1 µM [34]: 71%
- inhibition at 1 µM [35]: 99.7%
- inhibition at 1 µM [36]: 90.8%
- inhibition at 1 µM [37]: 92.5%
- inhibition at 1 µM [38]: 95.8%
- inhibition at 1 µM [39]: 99.8%
- inhibition at 1 µM [40]: 94.1%
- inhibition at 1 µM [41]: 100%
- inhibition at 1 µM [42]: 89%
Structure (SMILES): Cc1ccc(C#Cc2cc(NC(N)=O)c(C(=O)N[C@H]3CCCNC3)s2)cc1 [Example 24, (S)—N-(piperidin-3-yl)-5-(p-tolylethynyl)-3-ureidothiophene-2-carboxamide]
